Patent publication US20120135959A1, “Metalloprotein inhibitors containing nitrogen based ligands” (priority 2006, published 2012)
Where two headings read alike, the source gives them in different places.

Columns and labels:
[1] = biological target: T1, soybean lipoxygenase (sbLO) (Glycine max, UniProt P08170); assay: Lipoxygenase assay (absorbance at 234 nm, linoleic acid substrate); format: biochemical; conditions: 3 hours preincubation; for inhibition at 300 µM: reference compounds, read-out: inhibition of product formation relative to control (no inhibitor)
T1 construct: purchased Sigma-Aldrich
T1 sequence (P08170 1-839): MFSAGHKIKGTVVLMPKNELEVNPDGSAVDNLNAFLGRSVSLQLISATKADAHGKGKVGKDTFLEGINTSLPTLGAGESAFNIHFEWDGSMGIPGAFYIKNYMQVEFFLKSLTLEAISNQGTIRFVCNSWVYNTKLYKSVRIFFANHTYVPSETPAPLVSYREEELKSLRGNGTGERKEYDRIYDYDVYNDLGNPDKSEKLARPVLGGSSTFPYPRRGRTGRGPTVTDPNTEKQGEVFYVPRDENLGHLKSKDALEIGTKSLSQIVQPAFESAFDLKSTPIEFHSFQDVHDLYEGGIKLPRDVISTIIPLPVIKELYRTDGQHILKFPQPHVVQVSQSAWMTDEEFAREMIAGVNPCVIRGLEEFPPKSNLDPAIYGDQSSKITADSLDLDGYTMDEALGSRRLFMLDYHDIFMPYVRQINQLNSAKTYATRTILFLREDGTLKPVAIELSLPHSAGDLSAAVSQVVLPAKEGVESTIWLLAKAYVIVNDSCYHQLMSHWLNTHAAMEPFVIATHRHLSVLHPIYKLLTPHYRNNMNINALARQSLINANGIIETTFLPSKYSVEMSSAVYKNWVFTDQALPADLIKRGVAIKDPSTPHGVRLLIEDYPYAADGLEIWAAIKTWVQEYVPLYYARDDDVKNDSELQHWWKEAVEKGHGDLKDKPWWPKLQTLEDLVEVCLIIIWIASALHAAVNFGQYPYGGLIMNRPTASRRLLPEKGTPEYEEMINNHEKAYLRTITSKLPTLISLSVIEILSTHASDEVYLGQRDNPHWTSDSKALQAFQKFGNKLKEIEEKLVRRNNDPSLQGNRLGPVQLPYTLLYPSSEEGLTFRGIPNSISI

[2] = biological target: recombinant anthrax lethal factor (Bacillus anthracis, UniProt P15917); assay: biochemical; format: biochemical
MMP-3 = biological target: T2, MMP-3 (Homo sapiens, UniProt P08254); assay: biochemical; format: biochemical
T2 construct: purchased Biomol Research Laboratories

MMP-1 [3] = biological target: T3, MMP-1 (Homo sapiens, UniProt P03956); assay: biochemical
T3 sequence (P03956 100-469): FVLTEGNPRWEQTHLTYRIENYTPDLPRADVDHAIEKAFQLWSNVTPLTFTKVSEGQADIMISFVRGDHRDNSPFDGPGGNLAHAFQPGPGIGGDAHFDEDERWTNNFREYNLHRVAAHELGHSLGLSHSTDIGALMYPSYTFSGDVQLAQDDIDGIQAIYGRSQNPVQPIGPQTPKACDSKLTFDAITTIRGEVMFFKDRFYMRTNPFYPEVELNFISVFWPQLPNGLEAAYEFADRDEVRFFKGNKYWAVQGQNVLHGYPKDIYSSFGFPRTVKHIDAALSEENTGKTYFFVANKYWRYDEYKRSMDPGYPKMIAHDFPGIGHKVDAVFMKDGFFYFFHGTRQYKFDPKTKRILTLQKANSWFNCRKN

MMP-1 [4] = biological target: T3, MMP-1; conditions: for potency v. AHA: based on MMP-1 IC50; for IC50: read-out: MMP-1 IC50, fluorescence-based assay, pH 7.5, 1 h preincubation at 37° C., at least three independent experiments, spread in brackets

T2 sequence (P08254 100-477): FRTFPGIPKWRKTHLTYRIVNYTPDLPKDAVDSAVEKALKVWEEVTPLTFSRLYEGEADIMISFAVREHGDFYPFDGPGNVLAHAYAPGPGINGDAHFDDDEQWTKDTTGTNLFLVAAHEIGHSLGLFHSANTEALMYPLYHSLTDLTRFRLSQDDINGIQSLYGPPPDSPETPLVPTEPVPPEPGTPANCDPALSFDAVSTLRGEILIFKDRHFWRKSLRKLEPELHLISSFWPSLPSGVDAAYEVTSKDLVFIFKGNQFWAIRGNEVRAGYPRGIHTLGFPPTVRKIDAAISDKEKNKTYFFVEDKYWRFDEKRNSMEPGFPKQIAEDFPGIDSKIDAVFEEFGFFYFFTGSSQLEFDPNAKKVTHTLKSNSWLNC
Chain of recombinant anthrax lethal factor (P15917 34-809 limits assumed): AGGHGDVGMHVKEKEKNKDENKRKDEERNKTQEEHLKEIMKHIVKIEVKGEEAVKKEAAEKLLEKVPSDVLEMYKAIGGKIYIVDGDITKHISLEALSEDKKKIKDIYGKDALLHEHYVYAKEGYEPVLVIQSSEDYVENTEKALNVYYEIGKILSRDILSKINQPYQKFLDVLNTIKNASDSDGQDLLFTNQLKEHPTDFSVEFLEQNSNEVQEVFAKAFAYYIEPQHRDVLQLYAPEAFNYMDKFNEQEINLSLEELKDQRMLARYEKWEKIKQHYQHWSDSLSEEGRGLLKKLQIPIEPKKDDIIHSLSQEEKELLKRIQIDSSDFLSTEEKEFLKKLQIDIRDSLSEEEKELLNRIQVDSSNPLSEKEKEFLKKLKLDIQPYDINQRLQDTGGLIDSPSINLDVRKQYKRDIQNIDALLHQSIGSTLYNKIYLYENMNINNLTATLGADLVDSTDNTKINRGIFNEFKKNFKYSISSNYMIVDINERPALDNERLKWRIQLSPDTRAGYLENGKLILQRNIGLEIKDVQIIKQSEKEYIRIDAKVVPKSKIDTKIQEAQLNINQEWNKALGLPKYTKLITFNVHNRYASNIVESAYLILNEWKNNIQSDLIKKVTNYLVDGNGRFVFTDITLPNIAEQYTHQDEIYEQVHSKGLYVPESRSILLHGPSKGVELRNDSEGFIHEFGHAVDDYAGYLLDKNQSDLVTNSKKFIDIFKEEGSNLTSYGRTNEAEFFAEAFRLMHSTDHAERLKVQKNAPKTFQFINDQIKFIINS

Compound	inhibition at 300 µM [1] [%]	IC50 ([2]; pH 7, read-out: LF IC50) [µM]	IC50 (MMP-3) [µM]	IC50 (MMP-1 [3]) [µM]	inhibition of lipoxygenase activity ([1]; ZBGs, method gives chelator final concentration 100 μM) [%]	IC50 [2] [µM]	potency v. AHA (MMP-3)	potency v. AHA (MMP-1 [4])	IC50 (MMP-3; pH 6, read-out: MMP-3 IC50) [µM]	IC50 (MMP-1 [4]) [µM]
CC(=O)NO [AHA, acetohydroxamic acid, reference compound]	99	11400	25100	41600	–	–	–	–	–	–
O=C(O)c1ccccn1 [ZBG 1, picolinic acid]	–	–	181	2500	2.3	3500	139-fold	17-fold	–	–
C1CNCCNCCN1 [ZBG 2]	–	1280	–	–	–	–	19-fold	7-fold	1350	5690
O=C(O)c1cccc(C(=O)O)n1 [ZBG 3, dipicolenic acid]	–	2690	–	–	–	–	4-fold	3-fold	6100	13500
C1CNCCNCCNCCN1 [ZBG 4, cyclen]	–	5700	–	–	–	–	163-fold	98-fold	154	430
c1ccc(CNCc2ccccn2)nc1 [ZBG 5, di(2-picolyl)amine]	–	–	–	–	–	–	–	–	–	63
O=C(O)CNCC(=O)O [ZBG 6, aminodiacetic acid]	–	930	–	–	–	–	139-fold	82-fold	180	510
Cc1occc(=O)c1O [maltol]	70	–	–	–	–	–	–	–	–	–
di(2-picolyl)amine [ZBG 5]	–	370	–	–	–	–	185-fold	660-fold	136	–
